Key:
[1] = test system: barley; experiment: Test B preemergence/postemergence greenhouse plant response rating 0 to 10; format: in vivo, Hordeum vulgare; settings: 0 to 10 scale
In short: (§1)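 Test chemicals, dissolved in a non-phytotoxic solvent, were applied to soil at planting and, at the same time, over foliage of seedlings at the one to four leaf stage.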

[2] = test system: blackgrass; experiment: as above; format: in vivo, Alopecurus myosuroides; settings: 0 to 10 scale
In short: as §1

[3] = test system: cheatgrass; experiment: as above; format: in vivo, Bromus secalinus; settings: 0 to 10 scale
In short: as §1

[4] = test system: crabgrass; experiment: as above; format: in vivo, Digitaria spp.; settings: 0 to 10 scale
In short: as §1

[5] = test system: giant foxtail; experiment: as above; format: in vivo, Setaria faberii; settings: 0 to 10 scale
In short: as §1

[6] = test system: lambsquarters; experiment: as above; format: in vivo, Chenopodium album; settings: 0 to 10 scale
In short: as §1

[7] = test system: rape; experiment: as above; format: in vivo, Brassica napus; settings: 0 to 10 scale
In short: as §1

[8] = test system: soybean; experiment: as above; format: in vivo, Glycine max; settings: 0 to 10 scale
In short: as §1

[9] = test system: velvetleaf; experiment: as above; format: in vivo, Abutilon theophrasti; settings: 0 to 10 scale
In short: as §1

[10] = test system: purple nutsedge; experiment: as above; format: in vivo, Cyperus rotundus; settings: 0 to 10 scale
In short: as §1

[11] = test system: barley; experiment: Test C preemergence/postemergence greenhouse plant response rating 0 to 100; format: in vivo, Hordeum vulgare; settings: POSTEMERGENCE; for Plant response rating Barley Igri: 0 to 100 scale
In short: (§2)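 Compounds in non-phytotoxic solvent went onto sandy loam before emergence (seeded one day earlier) or onto plants at the one-to-four leaf stage. Duck salad was treated via flood water (~2.5 cm, maintained) over silt loam.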

[12] = test system: chickweed; experiment: as above; format: in vivo, Stellaria media; settings: POSTEMERGENCE; for Plant response rating, Chickweed: 0 to 100 scale
In short: as §2

[13] = test system: lambsquarters; experiment: as above; format: in vivo, Chenopodium album; settings: POSTEMERGENCE; for Plant response rating Lambsquarters: 0 to 100 scale
In short: as §2

[14] = test system: pigweed; experiment: as above; format: in vivo, Amaranthusretroflexus; settings: POSTEMERGENCE; for Plant response rating Pigweed: 0 to 100 scale
In short: as §2

[15] = test system: ryegrass; experiment: as above; format: in vivo, Lolium multiflorum; settings: POSTEMERGENCE; for Plant response rating Ryegrass: 0 to 100 scale
In short: as §2

[16] = test system: soybean; experiment: as above; format: in vivo, Glycine max; settings: POSTEMERGENCE; for Plant response rating, Soybean: 0 to 100 scale
In short: as §2

[17] = test system: sugar beet; experiment: as above; format: in vivo, Beta vulgaris; settings: POSTEMERGENCE; for Plant response rating, Sugar beet: 0 to 100 scale
In short: as §2

[18] = test system: wild buckwheat; experiment: as above; format: in vivo, Polygonum convolvulus; settings: POSTEMERGENCE; for Plant response rating, Wild buckwheat: 0 to 100 scale
In short: as §2

## C#CC(C)Oc1cc(-c2nn3c(c2Cl)CCCC3)c(F)cc1Cl (stereo not drawn) [Compound 36]
[1]; POSTEMERGENCE, Rate 50 g/ha
  Plant response rating, Barley: 5
[1]; POSTEMERGENCE, Rate 200 g/ha
  Plant response rating, Barley: 6
[1]; PREEMERGENCE, Rate 50 g/ha
  Plant response rating, Barley: 0
[1]; Rate 200 g/ha, PREEMERGENCE
  Plant response rating, Barley: 2
[2]; POSTEMERGENCE, Rate 50 g/ha
  Plant response rating, Blackgrass: 5
[2]; POSTEMERGENCE, Rate 200 g/ha
  Plant response rating, Blackgrass: 7
[2]; PREEMERGENCE, Rate 50 g/ha
  Plant response rating, Blackgrass: 4
[2]; Rate 200 g/ha, PREEMERGENCE
  Plant response rating, Blackgrass: 10
[3]; POSTEMERGENCE, Rate 50 g/ha
  Plant response rating, Cheatgrass: 5
[3]; POSTEMERGENCE, Rate 200 g/ha
  Plant response rating, Cheatgrass: 7
[3]; PREEMERGENCE, Rate 50 g/ha
  Plant response rating, Cheatgrass: 4
[3]; Rate 200 g/ha, PREEMERGENCE
  Plant response rating, Cheatgrass: 6
[4]; POSTEMERGENCE, Rate 50 g/ha
  Plant response rating, Crabgrass: 5
[4]; POSTEMERGENCE, Rate 200 g/ha
  Plant response rating, Crabgrass: 7
[4]; PREEMERGENCE, Rate 50 g/ha
  Plant response rating, Crabgrass: 5
[4]; Rate 200 g/ha, PREEMERGENCE
  Plant response rating, Crabgrass: 9
[5]; POSTEMERGENCE, Rate 50 g/ha
  Plant response rating, Giant foxtail: 6
[5]; PREEMERGENCE, Rate 50 g/ha
  Plant response rating, Giant foxtail: 5
[5]; Rate 200 g/ha, POSTEMERGENCE
  Plant response rating, Giant foxtail: 7
[5]; Rate 200 g/ha, PREEMERGENCE
  Plant response rating, Giant foxtail: 9
[6]; POSTEMERGENCE, Rate 50 g/ha
  Plant response rating, Lambsquarter: 10
[6]; PREEMERGENCE, Rate 50 g/ha
  Plant response rating, Lambsquarter: 10
[6]; Rate 200 g/ha, POSTEMERGENCE
  Plant response rating, Lambsquarter: 10
[6]; Rate 200 g/ha, PREEMERGENCE
  Plant response rating, Lambsquarter: 10
[7]; POSTEMERGENCE, Rate 50 g/ha
  Plant response rating, Rape: 10
[7]; PREEMERGENCE, Rate 50 g/ha
  Plant response rating, Rape: 5
[7]; Rate 200 g/ha, POSTEMERGENCE
  Plant response rating, Rape: 10
[7]; Rate 200 g/ha, PREEMERGENCE
  Plant response rating, Rape: 8
[8]; POSTEMERGENCE, Rate 50 g/ha
  Plant response rating, Soybean: 9
[8]; PREEMERGENCE, Rate 50 g/ha
  Plant response rating, Soybean: 0
[8]; Rate 200 g/ha, POSTEMERGENCE
  Plant response rating, Soybean: 9
[8]; Rate 200 g/ha, PREEMERGENCE
  Plant response rating, Soybean: 2
[9]; POSTEMERGENCE, Rate 50 g/ha
  Plant response rating, Velvetleaf: 10
[9]; PREEMERGENCE, Rate 50 g/ha
  Plant response rating, Velvetleaf: 8
[9]; Rate 200 g/ha, POSTEMERGENCE
  Plant response rating, Velvetleaf: 10
[9]; Rate 200 g/ha, PREEMERGENCE
  Plant response rating, Velvetleaf: 10
[10]; POSTEMERGENCE, Rate 50 g/ha
  Plant response rating, Nutsedge: 4
[10]; PREEMERGENCE, Rate 50 g/ha
  Plant response rating, Nutsedge: 0
[10]; Rate 200 g/ha, POSTEMERGENCE
  Plant response rating, Nutsedge: 5
[10]; Rate 200 g/ha, PREEMERGENCE
  Plant response rating, Nutsedge: 2
[11]; 62 g/ha
  Plant response rating Barley Igri: 30
[11]; 125 g/ha
  Plant response rating Barley Igri: 50
[11]; Rate 16 g/ha
  Plant response rating (0 to 100), Barley Igri: 20
[11]; Rate 31 g/ha
  Plant response rating (0 to 100), Barley Igri: 30
[12]; 62 g/ha
  Plant response rating, Chickweed: 80
[12]; 125 g/ha
  Plant response rating, Chickweed: 100
[12]; Rate 16 g/ha
  Plant response rating (0 to 100), Chickweed: 70
[12]; Rate 31 g/ha
  Plant response rating (0 to 100), Chickweed: 80
[13]; 62 g/ha
  Plant response rating Lambsquarters: 100
[13]; 125 g/ha
  Plant response rating Lambsquarters: 100
[13]; Rate 16 g/ha
  Plant response rating (0 to 100), Lambsquarters: 90
[13]; Rate 31 g/ha
  Plant response rating (0 to 100), Lambsquarters: 95
[14]; 62 g/ha
  Plant response rating Pigweed: 100
[14]; 125 g/ha
  Plant response rating Pigweed: 100
[14]; Rate 16 g/ha
  Plant response rating (0 to 100), Pigweed: 100
[14]; Rate 31 g/ha
  Plant response rating (0 to 100), Pigweed: 100
[15]; 62 g/ha
  Plant response rating Ryegrass: 30
[15]; 125 g/ha
  Plant response rating Ryegrass: 50
[15]; Rate 16 g/ha
  Plant response rating (0 to 100), Ryegrass: 20
[15]; Rate 31 g/ha
  Plant response rating (0 to 100), Ryegrass: 30
[16]; 62 g/ha
  Plant response rating, Soybean: 80
[16]; 125 g/ha
  Plant response rating, Soybean: 100
[16]; Rate 16 g/ha
  Plant response rating (0 to 100), Soybean: 50
[16]; Rate 31 g/ha
  Plant response rating (0 to 100), Soybean: 50
[17]; 62 g/ha
  Plant response rating, Sugar beet: 100
[17]; 125 g/ha
  Plant response rating, Sugar beet: 100
[17]; Rate 16 g/ha
  Plant response rating (0 to 100), Sugar beet: 95
[17]; Rate 31 g/ha
  Plant response rating (0 to 100), Sugar beet: 100
[18]; 62 g/ha
  Plant response rating, Wild buckwheat: 100
[18]; 125 g/ha
  Plant response rating, Wild buckwheat: 100
[18]; Rate 16 g/ha
  Plant response rating (0 to 100), Wild buckwheat: 70
[18]; Rate 31 g/ha
  Plant response rating (0 to 100), Wild buckwheat: 70

From US6358885B1, “Substituted phenylheterocyclic herbicides” (Mississippi State University, priority 1992, dated 2002)
